“And” between values parts separate entries of the source, which are not always exact repeats. Equal values may be shown once. Read-outs that look alike come from different tables or passages of the source.
Experiments:
[1] = Single-dose oral and intravenous murine PK; type: in vivo, female CD-1 mice; settings: female, mouse, plasma, CD-1 mice
Protocol: Single-dose oral and intravenous murine PK studies were performed by WuXi Biologics (Wuxi, China) in female CD-1 mice in compliance with animal care guidelines. […] Single-dose oral calf PK studies were performed at the University of Vermont in compliance with animal care guidelines and with approval from the University of Vermont Institutional Animal Care and Use Committee. […] Doses were squirted into the calves’ mouths during interruptions in bottle feeding. Fecal samples were collected at the indicated times by manual anal stimulation. […] Fecal AN7973 was measured by extracting AN7973 from homogenized feces with acetonitrile. For this, feces were added to 4 volumes of acetonitrile (4 mL per g), mixed by vortexing for 5 min at room temperature, and then centrifuged. […] The fecal extraction method was validated with a standard curve of compound added to control feces. […] Non-compartmental analysis of the mean concentration-time profiles was performed using Phoenix version 6.4 (Pharsight Corporation, Mountain View, CA, USA). Concentrations below the limit of quantitation were assigned values of zero for generation of mean concentrations. Predictions of multidose exposures were generated by non-parametric superposition of the single-dose PK data using Phoenix version 6.4 (Supplementary Fig. 5).

C. hominis TU502 isolate = test: C. hominis growth inhibition in HCT-8 cells; type: cell-based, Cryptosporidium hominis; settings: single replicates, unit inferred, read-out: In vitro efficacy (Fig 2b, EC50)
Protocol: Follow-up assays were performed at the University of Vermont (UVM) and Calibr at Scripps Research by infection of the colonic adenocarcinoma cell line HCT-8 (ATCC CCL-244) and staining with the Vicia villosa lectin and DAPI[17],[32]. The FBS concentrations and parasites used for these assays were as indicated; parasite isolates and sources included C. parvum Iowa isolate oocysts purchased from Bunch Grass Farm (Deary, ID), C. parvum Iowa isolate oocysts purchased from the Sterling Laboratory (University of Arizona, Tucson, AZ), wild type C. parvum oocysts provided by Dr. Jenni Zambriski (Virginia Tech, Blacksburg, VA), and the C. hominis TU502 isolate purchased from Dr. Saul Tzipori (Tufts University Cummings School of Veterinary Medicine, North Grafton, MA).

[2] = tested on: C. parvum DMC1 positive parasites; test: Asexual-to-sexual stage conversion assay (DMC1 expression); type: cell-based, Cryptosporidium parvum
Protocol: The invasion assay, DNA replication assay, asexual to sexual stage conversion, and time-kill curve assays were performed using fluorescence microscopy to enumerate parasites and host cell nuclei. Staining protocols are individually described for each assay. Unless noted otherwise, the details of image acquisition were as follows. An inverted Nikon Eclipse Ti2000 microscope with an automated stage and Perfect Focus was used with NIS-Elements Advanced Research software (Nikon, USA, version 4.30.01) to image the wells. The microscope was programmed to focus on the center of each well and then take a 3 × 3 composite image per well using a 20 × (0.45 NA) objective. Images were exported as .tiff files and parasites and host nuclei counted using a custom macro on ImageJ (National Institutes of Health, version 1.52a). Data were analyzed using Microsoft Excel and GraphPad Prism (version 6.01). […] Amphotericin B (Sigma, catalog# A2942) was added to the culture media at 0.1 to 0.5 µg per mL for the DMC1 dose response assays.

Cytotoxicity Jurkat (3d) = type: cell-based; settings: human, Jurkat cells, 25 µM highest concentration tested
[3] = Plasma Protein Binding (bovine); type: in vitro ADME; settings: read-out: Plasma Protein Binding (PPB) (converted)
[4] = Rat toxicokinetics (TK) study; type: in vivo, Sprague-Dawley male rats; settings: for AUC / Cmax: po, 80 mg/kg
Protocol: A repeated oral dose toxicity and separate toxicokinetics (TK) study were performed in male rats by WuXi AppTec Company (Suzhou, China). […] All rat studies were performed using ∼8-week-old Sprague-Dawley male rats (Rattus novegicus)/Crl: CD[SD] VAF/Plus weighing between 243.22 and 276.57 g at the start of compound dosing. […] Serum was collected from vehicle-control animals at 1 h and 4 h after dosing on days 1 and 7.

CYP2C19 = CYP2C19 (Homo sapiens, UniProt P33261); test: CYP450 inhibition 2C19; type: in vitro ADME
[5] = Plasma Protein Binding (mouse); type: in vitro ADME; settings: read-out: Plasma Protein Binding (PPB) (converted)
CYP2D6 = CYP2D6 (Homo sapiens, UniProt P10635); test: CYP450 inhibition 2D6; type: in vitro ADME
[6] = 2 mg/kg, intravenous 2 mg per kg
[7] = male, Sprague-Dawley, rat, serum, rat, 80 mg·kg-1 oral once daily, Day 1
[8] = male, Sprague-Dawley, rat, serum, rat, 80 mg·kg-1 oral once daily, Day 7

CYP2C19, sequence (P33261 whole entry): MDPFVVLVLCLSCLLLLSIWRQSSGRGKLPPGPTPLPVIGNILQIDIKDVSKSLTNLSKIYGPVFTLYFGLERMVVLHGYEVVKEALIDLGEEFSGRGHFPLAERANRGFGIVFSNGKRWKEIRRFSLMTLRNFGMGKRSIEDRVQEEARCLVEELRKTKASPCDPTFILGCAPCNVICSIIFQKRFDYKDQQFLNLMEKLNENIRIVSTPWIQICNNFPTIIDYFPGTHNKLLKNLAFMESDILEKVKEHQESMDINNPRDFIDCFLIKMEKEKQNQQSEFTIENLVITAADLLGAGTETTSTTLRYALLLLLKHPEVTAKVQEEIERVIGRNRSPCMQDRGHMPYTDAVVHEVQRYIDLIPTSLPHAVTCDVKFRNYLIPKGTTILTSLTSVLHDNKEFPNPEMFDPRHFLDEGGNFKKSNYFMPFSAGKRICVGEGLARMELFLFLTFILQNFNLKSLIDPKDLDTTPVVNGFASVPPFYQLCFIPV
CYP2D6, sequence (P10635 whole entry): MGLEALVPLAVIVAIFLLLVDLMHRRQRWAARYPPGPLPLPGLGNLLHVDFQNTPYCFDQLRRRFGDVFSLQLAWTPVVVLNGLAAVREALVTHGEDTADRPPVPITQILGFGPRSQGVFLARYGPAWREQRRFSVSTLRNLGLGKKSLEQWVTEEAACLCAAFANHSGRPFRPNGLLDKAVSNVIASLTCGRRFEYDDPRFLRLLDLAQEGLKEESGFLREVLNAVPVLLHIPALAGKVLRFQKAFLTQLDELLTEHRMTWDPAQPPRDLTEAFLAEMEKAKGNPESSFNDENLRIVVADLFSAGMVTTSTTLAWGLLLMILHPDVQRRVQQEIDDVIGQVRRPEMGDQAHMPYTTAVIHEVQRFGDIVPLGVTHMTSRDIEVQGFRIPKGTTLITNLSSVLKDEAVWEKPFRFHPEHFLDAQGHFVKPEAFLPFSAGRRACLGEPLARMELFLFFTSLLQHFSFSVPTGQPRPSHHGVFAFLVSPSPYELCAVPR

## CC1(C)OB(O)c2cc(NC(=O)c3ccc(-n4cccn4)cc3Cl)ccc21 [AN7973]
[1]; [6]
  AUC(0-inf): 49.7 µg·h/mL
  Cmax: 6820 ng/mL
  clearance: 0.667 mL/min/kg
  half-life: 6 h
[1]; 10 mg/kg, oral 10 mg per kg
  AUC(0-inf): 92.7 µg·h/mL
  Cmax: 8630 ng/mL
  half-life: 6.6 h
[1]; 10 mg/kg, oral 10 mg per kg, read-out: bioavailability F
  bioavailability: 37%
C. hominis TU502 isolate; C. hominis (Tu502, 2%FBS)
  EC50: 570 nM and 580 nM
C. hominis TU502 isolate; Cryptosporidium hominis, HCT-8, C. hominis (Tu502, 2%FBS)
  EC50: 750 nM
[2]; Cryptosporidium parvum, BGF Iowa isolate, HCT-8, 10% FBS, DMC1, interval in parentheses, read-out: EC50 asexual-to-sexual conversion (48–72 h)
  EC50: 480 nM
[2]; log [AN7973] (M) 0.10
  % inhibition, 48 - 72 h DMC1 (asexual to sexual conversion): 95.75%
[2]; log [AN7973] (M) 0.28
  % inhibition, 48 - 72 h DMC1 (asexual to sexual conversion): 95.64% and 78.65%
[2]; log [AN7973] (M) 0.40
  % inhibition, 48 - 72 h DMC1 (asexual to sexual conversion): 95.48%
[2]; log [AN7973] (M) -0.20
  % inhibition, 48 - 72 h DMC1 (asexual to sexual conversion): 85.62% and 65.23% and 46.69%
[2]; log [AN7973] (M) -0.68
  % inhibition, 48 - 72 h DMC1 (asexual to sexual conversion): -48.74% and -54.94% and -50.77%
[2]; log [AN7973] (M) -0.93
  % inhibition, 48 - 72 h DMC1 (asexual to sexual conversion): -98.53%
[2]; log [AN7973] (M) -1.23
  % inhibition, 48 - 72 h DMC1 (asexual to sexual conversion): -40.27%
[2]; log [AN7973] (M) -1.53
  % inhibition, 48 - 72 h DMC1 (asexual to sexual conversion): -58.48%
[2]; log [AN7973] (M) -2.01
  % inhibition, 48 - 72 h DMC1 (asexual to sexual conversion): -35.29%
[2]; log [AN7973] (M) -2.48
  % inhibition, 48 - 72 h DMC1 (asexual to sexual conversion): -28.64%
Cytotoxicity Jurkat (3d)
  IC50 at 3 d: > 25000 nM
[3]
  fraction unbound: 0.04
[4]; 80 mg per kg once daily, 7 days
  compound accumulation: No compound accumulation was observed
[4]; [7]
  AUC: 170 µg·h/mL
  Cmax: 11600 ng/mL
[4]; [8]
  AUC: 155 µg·h/mL
  Cmax: 10100 ng/mL
[4]; male, Sprague-Dawley, serum, rat, 80 mg·kg-1 oral once daily, Day 1
  Tmax: 8 h
[4]; male, Sprague-Dawley, serum, rat, 80 mg·kg-1 oral once daily, Day 7
  half-life: 22.7 h
CYP2C19
  inhibition at 10 µM: 27%
[5]
  fraction unbound: 0.011
CYP2D6
  inhibition at 10 µM: 0%

— article PMC6597546, “Identification of a potent benzoxaborole drug candidate for treating cryptosporidiosis” (Nature Communications, 2019)
